Results reported in paper PMC9916762, “Impact of Hydrophobic Chains in Five-Coordinate Glucoconjugate Pt(II) Anticancer Agents” (International Journal of Molecular Sciences, 2023).

Tested on: human epidermoid carcinoma cells (A431)
Experiment: MTT cell viability assay, A431
Type: cell-based
From the text: The immortalized human keratinocytes (HaCaT) were from Innoprot.

Substance: Platinum(1+), (2,9-dimethyl-1,10-phenanthroline- N1,N10)(η2-ethene)methyl[1,3-dihydro-1,3-dimethyl-4-[1-[2,3,4,6-tetrakis-O-(acetyl)-β-D-glucopyranosyl]-1H-1,2,3-triazol-4-yl]-2H-imidazol-2-ylidene], 1,1,1-trifluoromethanesulfonate [1-Me,Me]
- IC50 (48 h incubation, MTT): 20 ± 2 µM
- SI (selectivity index) (ratio IC50 HaCaT / IC50 A431): 0.42
